The NIST ThermoML archive (doi:10.1016/j.jct.2017.03.027)
Numbers after ± are expanded uncertainties.

Assay: xn = mol fraction of the nth substance listed
Details: 100 kPa, Liquid, Vibrating tube method

A mass density (298.15 K, x1 = 0.0494) of 793.49 ± 0.71 kg/m3, a mass density (298.15 K, x1 = 0.0995) of 800.72 ± 0.71 kg/m3 and a mass density (298.15 K, x1 = 0.2) of 812.35 ± 0.71 kg/m3 were found for `Cc1ccc(C(C)C)cc1` [1-(1-methylethyl)-4-methylbenzene] + CCO in this work. It also gave a mass density (298.15 K, x1 = 0.3009) of 821.26 ± 0.71 kg/m3, a mass density (298.15 K, x1 = 0.4037) of 828.42 ± 0.71 kg/m3 and a mass density (298.15 K, x1 = 0.5034) of 834.18 ± 0.71 kg/m3. The mass density (298.15 K, x1 = 0.6023) was 838.73 ± 0.71 kg/m3, the mass density (298.15 K, x1 = 0.7017) was 842.86 ± 0.71 kg/m3 and the mass density (298.15 K, x1 = 0.802) was 846.53 ± 0.71 kg/m3. The mass density (298.15 K, x1 = 0.897) was 849.61 ± 0.71 kg/m3, the mass density (298.15 K, x1 = 0.9509) was 851.34 ± 0.71 kg/m3 and the mass density (298.15 K, x1 = 1) was 852.93 ± 0.71 kg/m3. The mass density (308.15 K, x1 = 0.0494) was 784.81 ± 0.71 kg/m3, the mass density (308.15 K, x1 = 0.0995) was 792.02 ± 0.71 kg/m3 and the mass density (308.15 K, x1 = 0.2) was 803.65 ± 0.71 kg/m3. For the same compound, the mass density (308.15 K, x1 = 0.3009) was 812.6 ± 0.71 kg/m3, the mass density (308.15 K, x1 = 0.4037) was 819.8 ± 0.71 kg/m3 and the mass density (308.15 K, x1 = 0.5034) was 825.62 ± 0.71 kg/m3. It also gave a mass density (308.15 K, x1 = 0.6023) of 830.22 ± 0.71 kg/m3, a mass density (308.15 K, x1 = 0.7017) of 834.43 ± 0.71 kg/m3 and a mass density (308.15 K, x1 = 0.802) of 838.18 ± 0.71 kg/m3. It also gave a mass density (308.15 K, x1 = 0.897) of 841.37 ± 0.71 kg/m3, a mass density (308.15 K, x1 = 0.9509) of 843.19 ± 0.71 kg/m3 and a mass density (308.15 K, x1 = 1) of 844.89 ± 0.71 kg/m3. For the same compound, the mass density (318.15 K, x1 = 0.0494) was 775.96 ± 0.71 kg/m3, the mass density (318.15 K, x1 = 0.0995) was 783.15 ± 0.71 kg/m3 and the mass density (318.15 K, x1 = 0.2) was 794.79 ± 0.71 kg/m3. The mass density (318.15 K, x1 = 0.3009) was 803.77 ± 0.71 kg/m3, the mass density (318.15 K, x1 = 0.4037) was 811.02 ± 0.71 kg/m3 and the mass density (318.15 K, x1 = 0.5034) was 816.91 ± 0.71 kg/m3. For the same compound, the mass density (318.15 K, x1 = 0.6023) was 821.58 ± 0.71 kg/m3, the mass density (318.15 K, x1 = 0.7017) was 825.88 ± 0.71 kg/m3 and the mass density (318.15 K, x1 = 0.802) was 829.75 ± 0.71 kg/m3. The mass density (318.15 K, x1 = 0.897) was 833.06 ± 0.71 kg/m3, the mass density (318.15 K, x1 = 0.9509) was 834.99 ± 0.71 kg/m3 and the mass density (318.15 K, x1 = 1) was 836.81 ± 0.71 kg/m3. It also gave a mass density (328.15 K, x1 = 0.0494) of 766.9 ± 0.71 kg/m3, a mass density (328.15 K, x1 = 0.0995) of 774.08 ± 0.71 kg/m3 and a mass density (328.15 K, x1 = 0.2) of 785.71 ± 0.71 kg/m3. For the same compound, the mass density (328.15 K, x1 = 0.3009) was 794.75 ± 0.71 kg/m3, the mass density (328.15 K, x1 = 0.4037) was 802.06 ± 0.71 kg/m3 and the mass density (328.15 K, x1 = 0.5034) was 808.04 ± 0.71 kg/m3. It also gave a mass density (328.15 K, x1 = 0.6023) of 812.79 ± 0.71 kg/m3, a mass density (328.15 K, x1 = 0.7017) of 817.21 ± 0.71 kg/m3 and a mass density (328.15 K, x1 = 0.802) of 821.21 ± 0.71 kg/m3. The mass density (328.15 K, x1 = 0.897) was 824.68 ± 0.71 kg/m3, the mass density (328.15 K, x1 = 0.9509) was 826.74 ± 0.71 kg/m3 and the mass density (328.15 K, x1 = 1) was 828.69 ± 0.71 kg/m3.
